This data set has as its system CCRIS mutagenicity, Ames/micronucleus/aberration tests. The experiment in a line: CCRIS mutagenicity studies.
Where [1] appears, read: Test System: AMES SALMONELLA TYPHIMURIUM, Strain/Indicator: TA98, Metabolic Activation: NONE, Method: STANDARD PLATE.
Setting [2] is: Test System: AMES SALMONELLA TYPHIMURIUM, Strain/Indicator: TA98, Metabolic Activation: RAT, LIVER, S-9, AROCLOR 1254, Method: STANDARD PLATE.
The mark [3] stands for this setting: Test System: AMES SALMONELLA TYPHIMURIUM, Strain/Indicator: TA100, Metabolic Activation: NONE, Method: STANDARD PLATE.
Where [4] appears, read: Test System: AMES SALMONELLA TYPHIMURIUM, Strain/Indicator: TA100, Metabolic Activation: RAT, LIVER, S-9, AROCLOR 1254, Method: STANDARD PLATE.
The mark [5] stands for this setting: Test System: AMES SALMONELLA TYPHIMURIUM, Strain/Indicator: TA1535, Metabolic Activation: NONE, Method: STANDARD PLATE.
The mark [6] stands for this setting: Test System: AMES SALMONELLA TYPHIMURIUM, Strain/Indicator: TA1535, Metabolic Activation: RAT, LIVER, S-9, AROCLOR 1254, Method: STANDARD PLATE.
Setting [7] is: Test System: AMES SALMONELLA TYPHIMURIUM, Strain/Indicator: TA1537, Metabolic Activation: NONE, Method: STANDARD PLATE.
[8] abbreviates: Test System: AMES SALMONELLA TYPHIMURIUM, Strain/Indicator: TA1537, Metabolic Activation: RAT, LIVER, S-9, AROCLOR 1254, Method: STANDARD PLATE.

Active and inactive are the calls of the source. The rule behind the calls is not given here.

For `C=CC(=O)OCCCC`, the mutagenic call runs as follows: (Test System: AMES SALMONELLA TYPHIMURIUM, Strain/Indicator: TA98, Metabolic Activation: HAMSTER, LIVER, S-9, AROCLOR 1254 (10%), Method: PREINCUBATION) “inactive; negative”; (Test System: AMES SALMONELLA TYPHIMURIUM, Strain/Indicator: TA98, Metabolic Activation: NONE, Method: PREINCUBATION) “inactive; negative”; under setting [1], “inactive; negative”; (Test System: AMES SALMONELLA TYPHIMURIUM, Strain/Indicator: TA98, Metabolic Activation: RAT, LIVER, S-9, AROCLOR 1254 (10%), Method: PREINCUBATION) “inactive; negative”; under setting [2], “inactive; negative”; (Test System: AMES SALMONELLA TYPHIMURIUM, Strain/Indicator: TA98, Metabolic Activation: RAT, LIVER, S-9, SODIUM PHENOBARBITAL, Method: STANDARD PLATE) “inactive; negative”. In addition, the mutagenic call runs as follows: (Test System: AMES SALMONELLA TYPHIMURIUM, Strain/Indicator: TA100, Metabolic Activation: HAMSTER, LIVER, S-9, AROCLOR 1254 (10%), Method: PREINCUBATION) “inactive; negative”; (Test System: AMES SALMONELLA TYPHIMURIUM, Strain/Indicator: TA100, Metabolic Activation: NONE, Method: PREINCUBATION) “inactive; negative”; under setting [3], “inactive; negative”; (Test System: AMES SALMONELLA TYPHIMURIUM, Strain/Indicator: TA100, Metabolic Activation: RAT, LIVER, S-9, AROCLOR 1254 (10%), Method: PREINCUBATION) “inactive; negative”; (Test System: AMES SALMONELLA TYPHIMURIUM, Strain/Indicator: TA100, Metabolic Activation: RAT, LIVER, S-9, AROCLOR 1254, Method: PREINCUBATION) “inactive; negative”; under setting [4], “inactive; negative”. Further, the mutagenic call is “inactive; negative” (Test System: AMES SALMONELLA TYPHIMURIUM, Strain/Indicator: TA100, Metabolic Activation: RAT, LIVER, S-9, SODIUM PHENOBARBITAL, Method: STANDARD PLATE); “inactive; negative” (Test System: AMES SALMONELLA TYPHIMURIUM, Strain/Indicator: TA1535, Metabolic Activation: HAMSTER, LIVER, S-9, AROCLOR 1254 (10%), Method: PREINCUBATION); “inactive; negative” (Test System: AMES SALMONELLA TYPHIMURIUM, Strain/Indicator: TA1535, Metabolic Activation: NONE, Method: PREINCUBATION); “inactive; negative” under setting [5]; “inactive; negative” (Test System: AMES SALMONELLA TYPHIMURIUM, Strain/Indicator: TA1535, Metabolic Activation: RAT, LIVER, S-9, AROCLOR 1254 (10%), Method: PREINCUBATION); “inactive; negative” under setting [6]. The mutagenic call is, setting by setting: (Test System: AMES SALMONELLA TYPHIMURIUM, Strain/Indicator: TA1535, Metabolic Activation: RAT, LIVER, S-9, SODIUM PHENOBARBITAL, Method: STANDARD PLATE) “inactive; negative”; (Test System: AMES SALMONELLA TYPHIMURIUM, Strain/Indicator: TA1537, Metabolic Activation: HAMSTER, LIVER, S-9, AROCLOR 1254 (10%), Method: PREINCUBATION) “inactive; negative”; (Test System: AMES SALMONELLA TYPHIMURIUM, Strain/Indicator: TA1537, Metabolic Activation: NONE, Method: PREINCUBATION) “inactive; negative”; under setting [7], “inactive; negative”; (Test System: AMES SALMONELLA TYPHIMURIUM, Strain/Indicator: TA1537, Metabolic Activation: RAT, LIVER, S-9, AROCLOR 1254 (10%), Method: PREINCUBATION) “inactive; negative”; under setting [8], “inactive; negative”. Further, the mutagenic call is “inactive; negative” (Test System: AMES SALMONELLA TYPHIMURIUM, Strain/Indicator: TA1537, Metabolic Activation: RAT, LIVER, S-9, SODIUM PHENOBARBITAL, Method: STANDARD PLATE); “inactive; negative” (Test System: AMES SALMONELLA TYPHIMURIUM, Strain/Indicator: TA1538, Metabolic Activation: NONE, Method: STANDARD PLATE); “inactive; negative” (Test System: AMES SALMONELLA TYPHIMURIUM, Strain/Indicator: TA1538, Metabolic Activation: RAT, LIVER, S-9, AROCLOR 1254, Method: STANDARD PLATE); “inactive; negative” (Test System: AMES SALMONELLA TYPHIMURIUM, Strain/Indicator: TA1538, Metabolic Activation: RAT, LIVER, S-9, SODIUM PHENOBARBITAL, Method: STANDARD PLATE); “active; positive. reevaluation of results: positive” (Test System: MOUSE LYMPHOMA, Strain/Indicator: L5178Y (TK+/TK-), Metabolic Activation: NONE, Method: SUSPENSION/PLATE); “inactive; negative. reevaluation of results: negative” (Test System: MOUSE LYMPHOMA, Strain/Indicator: L5178Y (TK+/TK-), Metabolic Activation: RAT, LIVER, S-9, AROCLOR 1254, Method: SUSPENSION/PLATE). Under “Test System: UDS RODENT CELLS, Strain/Indicator: SHE CELL-MEDIATED, Metabolic Activation: NONE, Method: LIQUID SCINTILLATION COUNTING (THYMIDINE INCORPORATION)”, the mutagenic call is “inactive; negative”.
For `COC(=O)c1cc(-c2ccc(N)c(C(=O)OC)c2)ccc1N`, the mutagenic call is, setting by setting: (Test System: AMES SALMONELLA TYPHIMURIUM, Strain/Indicator: TA98(1,8-DNP6), Metabolic Activation: NONE, Method: STANDARD PLATE) “inactive; negative”; (Test System: AMES SALMONELLA TYPHIMURIUM, Strain/Indicator: TA98(1,8-DNP6), Metabolic Activation: S-9, Method: STANDARD PLATE) “active; positive”; under setting [1], “inactive; negative”; (Test System: AMES SALMONELLA TYPHIMURIUM, Strain/Indicator: TA98, Metabolic Activation: S-9, Method: STANDARD PLATE) “active; positive”; under setting [3], “inactive; negative”; (Test System: AMES SALMONELLA TYPHIMURIUM, Strain/Indicator: TA100, Metabolic Activation: S-9, Method: STANDARD PLATE) “inactive; negative”.
In the case of `Cc1c(/C=N/OCc2ccccc2)c2cc([N+](=O)[O-])ccc2n1Cc1cccc([N+](=O)[O-])c1`, the mutagenic call is, setting by setting: under setting [1], “active; positive”; (Test System: AMES SALMONELLA TYPHIMURIUM, Strain/Indicator: TA98, Metabolic Activation: RAT, LIVER, S-9, PHENOBARBITAL AND BETA-NAPHTHOFLAVONE, Method: STANDARD PLATE) “active; positive”; under setting [3], “inactive; negative”; (Test System: AMES SALMONELLA TYPHIMURIUM, Strain/Indicator: TA100, Metabolic Activation: RAT, LIVER, S-9, PHENOBARBITAL AND BETA-NAPHTHOFLAVONE, Method: STANDARD PLATE) “inactive; negative”.
As to `NC(=O)c1cccnc1`, the mutagenic call runs as follows: (Test System: AMES SALMONELLA TYPHIMURIUM, Strain/Indicator: TA97A, Metabolic Activation: NONE, Method: PREINCUBATION) “inactive; negative”; (Test System: AMES SALMONELLA TYPHIMURIUM, Strain/Indicator: TA97A, Metabolic Activation: RAT, LIVER, S-9, AROCLOR 1254, Method: PREINCUBATION) “inactive; negative”; (Test System: AMES SALMONELLA TYPHIMURIUM, Strain/Indicator: TA102, Metabolic Activation: NONE, Method: PREINCUBATION) “inactive; negative”; (Test System: AMES SALMONELLA TYPHIMURIUM, Strain/Indicator: TA102, Metabolic Activation: RAT, LIVER, S-9, AROCLOR 1254, Method: PREINCUBATION) “inactive; negative”.
`CCCS(=O)(=O)n1ncc(Cl)c(Cl)c1=O`: the mutagenic call reads like this: under setting [1], “inactive; negative”; under setting [2], “inactive; negative”; under setting [3], “active; positive”; under setting [4], “active; positive”; under setting [5], “inactive; negative”; under setting [6], “active; positive”. Further, the mutagenic call runs as follows: under setting [7], “inactive; negative”; under setting [8], “inactive; negative”.
For `ClCc1cc2c3ccccc3cc3ccc4cccc1c4c32`, the mutagenic call is, setting by setting: under setting [1], “active; positive”; under setting [3], “active; positive”.

The values above are taken from PubChem BioAssay AID1259407 (Chemical Carcinogenesis Research Information System (CCRIS), 2018).
